Molecules are shown by their SMILES.

The target of the first assay is T1, GCS (Canis lupus familiaris, UniProt A0A8I3MXG6).
T1 sequence (A0A8I3MXG6 1-394): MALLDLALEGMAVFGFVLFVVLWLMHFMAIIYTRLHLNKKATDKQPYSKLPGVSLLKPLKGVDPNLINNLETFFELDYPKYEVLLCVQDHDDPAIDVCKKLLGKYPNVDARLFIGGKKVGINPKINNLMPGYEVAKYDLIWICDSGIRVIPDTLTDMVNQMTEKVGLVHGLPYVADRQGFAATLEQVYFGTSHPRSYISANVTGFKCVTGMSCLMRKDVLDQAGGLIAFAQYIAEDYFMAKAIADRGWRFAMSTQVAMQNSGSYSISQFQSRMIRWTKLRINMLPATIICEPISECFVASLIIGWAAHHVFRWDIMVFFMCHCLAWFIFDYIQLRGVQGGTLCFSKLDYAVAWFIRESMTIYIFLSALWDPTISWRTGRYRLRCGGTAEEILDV
The assay is described as follows: Assay 1: GCS Enzymatic Assay (MDCK cell lysate, C6-NBD-Ceramide, LC/MS). Format: biochemical, canine. The conditions noted are these: Table 3; MDCK cell lysate; read-out: IC50 (nM) generated from Assay 1. A digest of the protocol: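 LC/MS/MS measurement of glucosylceramide and NBD-ceramide after a 1 h, 37 °C reaction with 100 μM UDP-glucose and 10 μM C6-NBD-ceramide gave IC50s or percent inhibition.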
In the case of `O=C(N[C@H](CN1CCC1)[C@H](O)c1ccc(OC2CC2)c(F)c1)C(=O)c1cc2cc(Cl)ccc2s1` [Example 387, N-((1R,2R)-3-(azetidin-1-yl)-1-(4-cyclopropoxy-3-fluorophenyl)-1-hydroxypropan-2-yl)-2-(5-chlorobenzo[b]thiophen-2-yl)-2-oxoacetamide], the IC50 – broadly, the concentration at which inhibition is half-maximal – was under 50 nM.

In the case of `O=C(N[C@H](CN1CCCC1)[C@H](O)c1ccc(OC2CC2)cc1)C(=O)c1cc2ccccc2s1` [Example 388, 2-(benzo[b]thiophen-2-yl)-N-((1R,2R)-1-(4-cyclopropoxyphenyl)-1-hydroxy-3-(pyrrolidin-1-yl)propan-2-yl)-2-oxoacetamide], the IC50 was under 50 nM.

With `O=C(N[C@H](CN1CCCC1)[C@H](O)c1ccc(Cl)cc1)C(=O)c1ccc(-c2ccc(F)cc2)cc1` [Example 389, N-((1R,2R)-1-(4-chlorophenyl)-1-hydroxy-3-(pyrrolidin-1-yl)propan-2-yl)-2-(4′-fluoro-[1,1′-biphenyl]-4-yl)-2-oxoacetamide], the IC50 was in the range of 50 to 5000 nM.

As to `O=C(N[C@H](CN1CCCC1)[C@H](O)c1ccc(OC2CC2)cc1)C(F)(F)CCc1ccc2ccccc2c1` [Example 390, N-((1R,2R)-1-(4-cyclopropoxyphenyl)-1-hydroxy-3-(pyrrolidin-1-yl)propan-2-yl)-2,2-difluoro-4-(naphthalen-2-yl)butanamide], the IC50 is under 50 nM.

Turning to `O=C(N[C@H](CN1CCCC1)[C@H](O)c1ccc(OC2CC2)cc1)C(=O)c1cc2cc(Cl)ccc2s1` [Example 391, 2-(5-chlorobenzo[b]thiophen-2-yl)-N-((1R,2R)-1-(4-cyclopropoxyphenyl)-1-hydroxy-3-(pyrrolidin-1-yl)propan-2-yl)-2-oxoacetamide], the IC50 was under 50 nM.

In the case of `O=C(N[C@H](CN1CCCC1)[C@H](O)c1ccc(OC2CC2)cc1)C(=O)c1ccc(-c2ccc(Cl)s2)cc1` [Example 392, 2-(4-(5-chlorothiophen-2-yl)phenyl)-N-((1R,2R)-1-(4-cyclopropoxyphenyl)-1-hydroxy-3-(pyrrolidin-1-yl)propan-2-yl)-2-oxoacetamide], the IC50 was under 50 nM.

With `O=C(N[C@H](CN1CCCC1)[C@H](O)c1ccc(OC2CC2)cc1)C(F)(F)c1ccc(-c2ccc(Cl)s2)cc1` [Example 393, 2-(4-(5-chlorothiophen-2-yl)phenyl)-N-((1R,2R)-1-(4-cyclopropoxyphenyl)-1-hydroxy-3-(pyrrolidin-1-yl)propan-2-yl)-2,2-difluoroacetamide], the IC50 was under 50 nM.

Consider `O=C(N[C@H](CN1CCCC1)[C@H](O)c1ccc(OC2CC2)cc1)C(F)(F)c1ccc(-c2ccc(F)cc2)cc1` [Example 394, N-((1R,2R)-1-(4-cyclopropoxyphenyl)-1-hydroxy-3-(pyrrolidin-1-yl)propan-2-yl)-2,2-difluoro-2-(4′-fluoro-[1,1′-biphenyl]-4-yl)acetamide], for which the IC50 is under 50 nM.

`O=C(N[C@H](CN1CCCC1)[C@H](O)c1ccc(OC2CC2)c(F)c1)C(=O)c1ccc(C2CC2)cc1` [Example 395, N-((1R,2R)-1-(4-cyclopropoxy-3-fluorophenyl)-1-hydroxy-3-(pyrrolidin-1-yl)propan-2-yl)-2-(4-cyclopropylphenyl)-2-oxoacetamide]: the IC50 was under 50 nM.

For `O=C(N[C@H](CN1CCCC1)[C@H](O)c1ccc(OC2CC2)c(Cl)c1)C(F)(F)c1ccc(-c2ccc(Cl)s2)cc1` [Example 396, N-((1R,2R)-1-(3-chloro-4-cyclopropoxyphenyl)-1-hydroxy-3-(pyrrolidin-1-yl)propan-2-yl)-2-(4-(5-chlorothiophen-2-yl)phenyl)-2,2-difluoroacetamide], the IC50 is under 50 nM.

Regarding `O=C(N[C@H](CN1CCCC1)[C@H](O)c1ccc(OC2CC2)c(F)c1)C(F)(F)c1ccc(-c2ccc(Cl)s2)cc1` [Example 397, 2-(4-(5-chlorothiophen-2-yl)phenyl)-N-((1R,2R)-1-(4-cyclopropoxy-3-fluorophenyl)-1-hydroxy-3-(pyrrolidin-1-yl)propan-2-yl)-2,2-difluoroacetamide], the IC50 was under 50 nM.

In the case of `O=C(N[C@H](CN1CCCC1)[C@H](O)c1cc(F)c2c(c1)OCCO2)C(F)(F)c1ccc(-c2ccc(Cl)s2)cc1` [Example 398, 2-(4-(5-chlorothiophen-2-yl)phenyl)-2,2-difluoro-N-((1R,2R)-1-(8-fluoro-2,3-dihydrobenzo[b][1,4]dioxin-6-yl)-1-hydroxy-3-(pyrrolidin-1-yl)propan-2-yl)acetamide], the IC50 was under 50 nM.

Turning to `O=C(N[C@H](CN1CCCC1)[C@H](O)c1ccc(OC2CC2)cc1)C(=O)c1cc2ccc(Cl)cc2s1` [Example 399, 2-(6-chlorobenzo[b]thiophen-2-yl)-N-((1R,2R)-1-(4-cyclopropoxyphenyl)-1-hydroxy-3-(pyrrolidin-1-yl)propan-2-yl)-2-oxoacetamide], the IC50 was under 50 nM.

As to `O=C(N[C@H](CN1CCCC1)[C@H](O)c1ccc(OC2CC2)c(Cl)c1)C(=O)c1ccc(-n2cccn2)cc1` [Example 400, 2-(4-(1H-pyrazol-1-yl)phenyl)-N-((1R,2R)-1-(3-chloro-4-cyclopropoxyphenyl)-1-hydroxy-3-(pyrrolidin-1-yl)propan-2-yl)-2-oxoacetamide], the IC50 is under 50 nM.

Take `C#Cc1ccc(C(=O)C(=O)N[C@H](CN2CCCC2)[C@H](O)c2ccc(OC3CC3)cc2)cc1` [Example 401, N-((1R,2R)-1-(4-cyclopropoxyphenyl)-1-hydroxy-3-(pyrrolidin-1-yl)propan-2-yl)-2-(4-ethynylphenyl)-2-oxoacetamide]: the IC50 lay in the range of 50 to 5000 nM.

In the case of `O=C(N[C@H](CN1CCCC1)[C@H](O)c1ccc(OC2CC2)cc1)C(F)(F)CCc1ccc2cc(Cl)ccc2c1` [Example 402, 4-(6-chloronaphthalen-2-yl)-N-((1R,2R)-1-(4-cyclopropoxyphenyl)-1-hydroxy-3-(pyrrolidin-1-yl)propan-2-yl)-2,2-difluorobutanamide], the IC50 lay within 50 to 5000 nM.

With `O=C(N[C@H](CN1CCCC1)[C@H](O)c1ccc(OC2CC2)c(Cl)c1)C(=O)c1ccc(-n2nccn2)cc1` [Example 403, 2-(4-(2H-1,2,3-triazol-2-yl)phenyl)-N-((1R,2R)-1-(3-chloro-4-cyclopropoxyphenyl)-1-hydroxy-3-(pyrrolidin-1-yl)propan-2-yl)-2-oxoacetamide], the IC50 was under 50 nM.

Turning to `CN(C(=O)C(=O)c1ccc(-c2ccc(F)cc2)cc1)[C@H](CN1CCCC1)[C@H](O)c1ccc(OC2CC2)c(F)c1` [Example 404, N-((1R,2R)-1-(4-cyclopropoxy-3-fluorophenyl)-1-hydroxy-3-(pyrrolidin-1-yl)propan-2-yl)-2-(4′-fluoro-[1,1′-biphenyl]-4-yl)-N-methyl-2-oxoacetamide], the IC50 is under 50 nM.

For `O=C(N[C@H](CN1CCCC1)[C@H](O)c1ccc(OC(F)F)cc1)C(=O)c1cc2ccc(Cl)cc2s1` [Example 405, 2-(6-chlorobenzo[b]thiophen-2-yl)-N-((1R,2R)-1-(4-(difluoromethoxy)phenyl)-1-hydroxy-3-(pyrrolidin-1-yl)propan-2-yl)-2-oxoacetamide], the IC50 fell in the range of 50 to 5000 nM.

The same assay, now with this note: Table 3; values marked *; MDCK cell lysate.
In the case of `O=C(N[C@H](CN1CCCC1)[C@H](O)c1ccc(OC2CC2)c(Cl)c1)/C(CCc1ccc2cc(F)ccc2c1)=N/O` [Example 406, (E)-N-((1R,2R)-1-(3-chloro-4-cyclopropoxyphenyl)-1-hydroxy-3-(pyrrolidin-1-yl)propan-2-yl)-4-(6-fluoronaphthalen-2-yl)-2-(hydroxyimino)butanamide], the “% inhibition generated from Assay 1” value is listed as “A* (the compound had a % inhibition of a percent inhibition of greater than or equal to about 50%)”.

Source of the values: patent US10227323B2, “Glucosylceramide synthase inhibitors for the treatment of diseases” (BIOMARIN PHARMACEUTICAL INC., priority 2013, dated 2019).
